Our source for the inhibition values is PubChem BioAssay AID493105 (The Scripps Research Institute Molecular Screening Center, 2011).

Calls of active or inactive are those of the source. The rule behind the calls is not given here.

Holding throughout (assay): LYPLA1 and LYPLA2 inhibitors, biochemical, gel-based ABPP, fluorescence, recombinant and endogenous enzyme (AID 493105)
Assay [1] relates to emLYPLA1. Conditions: fluorescent probe labeling, membrane fraction, at 20 µM, active compounds read high.
The test system of assay [2] is emLYPLA2. Conditions: fluorescent probe labeling, membrane fraction, at 20 µM, active compounds read high.
Assay [3] has as its system rhLYPLA1. Conditions: fluorescent probe labeling, soluble fraction, at 20 µM, active compounds read high.
Assay [4] relates to rhLYPLA2. The conditions noted are these: fluorescent probe labeling, membrane fraction, at 20 µM, active compounds read high.

In general, inhibition refers to the share of the control response that was lost under treatment. As for `O=C(COc1ccc(Cl)cc1)N1CCN(c2cccc(C(F)(F)F)c2)CC1`, the inhibition is 0% (inactive) in assay [1], 9% (inactive) in assay [2], 0% (inactive) in assay [3] and 0% (inactive) in assay [4].

For the molecule `O=C(CCN1CCN(c2ccc([N+](=O)[O-])cc2)CC1)c1ccc(Cl)cc1`, the inhibition in assay [1] was 9% (inactive); in assay [2] it was 1% (inactive); in assay [3], 0% (inactive); in assay [4], 6% (inactive).

As to `N#Cc1ccccc1OCCCN1CCC(Cc2ccccc2)CC1`, the inhibition in assay [1] was 11% (inactive); in assay [2] it was 9% (inactive); in assay [3] it was 21% (inactive); in assay [4], 0% (inactive).

With `Cc1ccc([N+](=O)[O-])c(OCCCN2CCC(Cc3ccccc3)CC2)c1`, the inhibition in assay [1] is 0% (inactive); in assay [2] it was 2% (inactive); in assay [3] it was 7% (inactive); in assay [4] it was 0% (inactive).

For the molecule `O=C(C1CCC(Cn2c(=S)[nH]c3ccccc3c2=O)CC1)N1CCN(c2ccccc2)CC1` (stereo not given), the inhibition is 0% (inactive) in assay [1], 8% (inactive) in assay [2], 0% (inactive) in assay [3] and 13% (inactive) in assay [4].

As for `CC(=O)N1CCC2(CC1)C/C(=N\NC(=S)Nc1ccccc1C)c1cc(O)ccc1O2`, the inhibition in assay [1] is 2% (inactive); in assay [2], 5% (inactive); in assay [3], 0% (inactive); in assay [4], 3% (inactive).

As to `O=C(CCCCCCN1C(=O)c2ccccc2C1=O)N1CCC(c2ccccc2)C1` (stereo not given), the inhibition in assay [1] was 0% (inactive); in assay [2] it was 17% (inactive); in assay [3] it was 17% (inactive); in assay [4] it was 2% (inactive).

For the molecule `O=c1ccc2ccc(Oc3ccc([N+](=O)[O-])cc3Cl)cc2o1`, the inhibition is 0% (inactive) in assay [1], 17% (inactive) in assay [2], 0% (inactive) in assay [3] and 6% (inactive) in assay [4].

On to `Cc1ccc(C)c(C(=O)CCC(=O)N2CCN(c3cccc(C(F)(F)F)c3)CC2)c1`, for which the inhibition in assay [1] is 4% (inactive); in assay [2], 4% (inactive); in assay [3] it was 31%; in assay [4] it was 0% (inactive).

Consider `COc1cc(COc2ccc3c(C)c(Cc4ccccc4)c(=O)oc3c2)cc(OC)c1OC`, for which the inhibition in assay [1] was 0% (inactive); in assay [2] it was 4% (inactive); in assay [3], 0% (inactive); in assay [4], 0% (inactive).

As for `COc1ccc(-n2nc(C(=O)NCC(=O)N3CCN(Cc4ccc5c(c4)OCO5)CC3)c3ccccc3c2=O)cc1OC`, the inhibition in assay [1] was 8% (inactive); in assay [2] it was 68%; in assay [3], 35%; in assay [4], 50%.

`O=C(CN1CCN(C(=O)c2ccco2)CC1)Nc1cc(Cl)ccc1Cl`: the inhibition in assay [1] was 37%; in assay [2], 0% (inactive); in assay [3] it was 60%; in assay [4], 0% (inactive).

For `COc1ccc(C(CNC(=O)COc2ccc(-c3ccccc3)cc2)N2CCOCC2)cc1` (stereo not given), the inhibition in assay [1] is 0% (inactive); in assay [2], 1% (inactive); in assay [3] it was 5% (inactive); in assay [4] it was 0% (inactive).

Turning to `N#Cc1c(N)nc(SCc2ccncc2)c(C#N)c1-c1cccs1`, the inhibition is 10% (inactive) in assay [1], 16% (inactive) in assay [2], 3% (inactive) in assay [3] and 11% (inactive) in assay [4].

For the molecule `CCC(=O)N1CCN(c2ccc(NC(=S)NC(=O)c3ccc(OC)c([N+](=O)[O-])c3)cc2)CC1`, the inhibition was 13% (inactive) in assay [1], 40% in assay [2], 25% (inactive) in assay [3] and 21% (inactive) in assay [4].
